Experimental data: patent US9084806B2, “Hypoxia-responsive nanoparticle for therapy and imaging of hypoxia-involving diseases” (RESEARCH & BUSINESS FOUNDATION SUNGKYUNKWAN UNIVERSITY, priority 2012, dated 2015)
Entries after “also recorded” stand apart in the source; their conditions may differ.

Experiments:
[1] = cited from earlier work
SCC7 cells = assay: In vitro cytotoxicity, MTT assay; type: cell-based; conditions: 24 h, various concentrations
Protocol: To evaluate in vitro cytotoxicity of HR-NPs, they were exposed to the SCC7 cells for 24 h at 37° C., after which the cell viability was measured using the MTT assay (FIG. 6a).
SCC7 (squamous carcinoma) cell lines, obtained from the American Type Culture Collection (Rockville, Md., USA), were cultured in RPMI 1640 medium (Gibco, Grand Island, N.Y., USA) containing 10% (v/v) fetal bovine serum and 1% (w/v) penicillin-streptomycin at 37° C. in a humidified 5% CO2-95% air atmosphere. The cells were seeded at a density of 1 104 cells/well in 96-well flat-bottomed plates. After one day of growth, the cells were washed twice with a PBS (pH 7.4) and incubated for 24 h with various concentrations of free DOX or DOX-HR-NPs (HR-NP8 and HR-NP11) under the hypoxic or normoxic condition. The cells were then washed twice with a PBS (pH 7.4) and the fresh culture medium was added. Twenty microliters of 3-(4,5-dimethylthiazol-2-yl)-2,5-diphenyltetrazolium bromide solution (5 mg/ml in PBS) were added to each well, and the cells were incubated for an additional 4 h at 37° C. Subsequently, the medium was removed, and the cells were dissolved in DMSO. The absorbance at 570 nm was measured using a microplate reader (BioTek, Seoul, Korea).

SCC7 cancer xenografts = assay: In vivo antitumor efficacy; set-up: species or system mice; conditions: DOX dose 5 mg/kg, once every three days
Protocol: To evaluate the anti-tumor efficacy of HR-NPs, SCC7 tumor bearing mice were prepared, as previously described. Mice were divided into three groups: (i) normal saline (ii) free DOX at 5 mg/kg, and (iii) DOX-HR-NP11 at 5 mg DOX/kg. When tumors reached 8 mm in diameter, each sample was injected once every three days. Tumor volumes were calculated as a×b^2/2, were a was the largest and b the smallest diameter. The statistical significance of differences (p<0.05) between groups tested was determined using one-way ANOVA test.

SMILES	solubility in water [1]	cytotoxicity in the hypoxic condition compared with the normoxic condition (SCC7 cells)	change in tumor volume (SCC7 cancer xenografts)
O=[N+]([O-])c1ncc[nH]1 [2-nitroimidazole]	poorly soluble in water	–	–
Nc1ncc[nH]1 [2-aminoimidazole]	readily dissolving in water; also recorded: highly water-soluble	–	–
COc1cccc2c1C(=O)c1c(O)c3c(c(O)c1C2=O)C[C@@](O)(C(=O)CO)C[C@@H]3O[C@H]1C[C@H](N)[C@H](O)[C@H](C)O1 [free DOX, doxorubicin]	–	comparable	considerable increase
